For 18 compounds, pest or weed control and chromatographic logP results are on record in patent EP3708565A1, “PYRIMIDINYLOXYPHENYLAMIDINES AND THE USE THEREOF AS FUNGICIDES” (Bayer AG, priority 2020, dated 2020).

One data set relates to Phakospora pachyrhizi. As to the kind of experiment: in vivo preventive test on Phakospora pachyrhizi (soybean rust). Conditions: Glycine max, 288 h; 500 ppm of active ingredient; young soybean plants sprayed, inoculated after 24 hours, evaluated 12 days after the inoculation; read-out: efficacy. How it is done: Example: in vivo preventive test on Phakospora pachyrhizi (soybean rust)
(§1) The active ingredients were made soluble and homogenized in a mixture of Dimethyl sulfoxide/Acetone/ /Tween® 80 and then diluted in water to the desired concentration.
The young plants of soybean were treated by spraying the active ingredient prepared as described above. Control plants were treated only with an aqueous solution of Acetone/Dimethyl sulfoxide/ […].
After 24 hours, the plants were contaminated by spraying the leaves with an aqueous suspension of Phakosporapachyrhizi spores. The contaminated soybean plants were incubated for 24 hours at 24°C and at 100% relative humidity and then for 11 days at 24°C and at 70-80% relative humidity.
The test was evaluated 12 days after the inoculation. 0% means an efficacy which corresponds to that of the control plants while an efficacy of 100% means that no disease was observed.

The test system of the next data set is Puccinia recondita. Put plainly: in vivo preventive test on Puccinia recondita (brown rust on wheat). Conditions: Puccinia recondita, 264 h; 500 ppm of active ingredient; young wheat plants sprayed, inoculated after 24 hours, evaluated 11 days after the inoculation; read-out: efficacy. How it is done: Example: in vivo preventive test on Puccinia recondita (brown rust on wheat)
as §1
The young plants of wheat were treated by spraying the active ingredient prepared as described above. Control plants were treated only with an aqueous solution of Acetone/Dimethyl sulfoxide/ Tween® 80.
After 24 hours, the plants were contaminated by spraying the leaves with an aqueous suspension of Puccinia recondita spores. The contaminated wheat plants were incubated for 24 hours at 20°C and at 100% relative humidity and then for 10 days at 20°C and at 70-80% relative humidity.
The test was evaluated 11 days after the inoculation. 0% means an efficacy which corresponds to that of the control plants while an efficacy of 100% means that no disease was observed.

Data set [1] can be described thus: LogP measurement by HPLC on reversed phase columns (EEC directive 79/831 Annex V.A8). Type of data set: physicochemical. Conditions: reversed phase HPLC column. As to the method: If more than one LogP value is available within the same method, all the values are given and separated by "+".
Lambda-max-values were determined using UV-spectra from 200 nm to 400 nm and the peak values of the chromatographic signals.

The next data set deals with Sphaerotheca fuliginea. Put plainly: in vivo preventive test on Sphaerotheca fuliginea (powdery mildew on cucurbits). Conditions: Podosphaera fuliginea, 192 h; 500 ppm of active ingredient; young gherkin plants sprayed, inoculated after 24 hours, evaluated 8 days after the inoculation; read-out: efficacy. How it is done: Example: in vivo preventive test on Sphaerotheca fuliginea (powdery mildew on cucurbits)
as §1
The young plants of gherkin were treated by spraying the active ingredient prepared as described above. Control plants were treated only with an aqueous solution of Acetone/Dimethyl sulfoxide/ […].
After 24 hours, the plants were contaminated by spraying the leaves with an aqueous suspension of Sphaerotheca fuliginea spores. The contaminated gherkin plants were incubated for 8 days at 20°C and at 70-80% relative humidity.
The test was evaluated 8 days after the inoculation. 0% means an efficacy which corresponds to that of the control plants while an efficacy of 100% means that no disease was observed.

Where [2] appears, read: method [a]: LC-UV, acidic range, 0.1% formic acid in water and acetonitrile as eluent.
Setting [3] is: method [b]: LC-UV, neutral range, 0.001 molar ammonium acetate solution in water and acetonitrile as eluent.

Regarding `CCN(C)C=Nc1cc(C)c(Oc2ccnc(Sc3ccccc3F)n2)cc1C` [I.008, N-ethyl-N'-[4-[2-(2-fluorophenyl)sulfanylpyrimidin-4-yl]oxy-2,5-dimethylphenyl]-N-methyl-methanimidamide], the pest or weed control at 500 ppm with Phakospora pachyrhizi, in the data set on Puccinia recondita and in the data set with Sphaerotheca fuliginea was at least 70% in each case. The chromatographic logP in data set [1] (setting [2]) was found to be 1.6.

`CCN(C)C=Nc1cc(C)c(Oc2ccnc(Sc3cccc(F)c3)n2)cc1C` [I.009, N-ethyl-N'-[4-[2-(3-fluorophenyl)sulfanylpyrimidin-4-yl]oxy-2,5-dimethylphenyl]-N-methyl-methanimidamide]: the pest or weed control at 500 ppm in the data set with Phakospora pachyrhizi, in the data set on Puccinia recondita and with Sphaerotheca fuliginea was at least 70% each time. This compound returned a chromatographic logP in data set [1] (setting [2]) of 1.66.

Consider `CCN(C)C=Nc1cc(C)c(Oc2ccnc(Sc3ccc(F)cc3)n2)cc1C` [I.010, N-ethyl-N'-[4-[2-(4-fluorophenyl)sulfanylpyrimidin-4-yl]oxy-2,5-dimethylphenyl]-N-methyl-methanimidamide], for which the pest or weed control at 500 ppm with Phakospora pachyrhizi, with Puccinia recondita and in the data set with Sphaerotheca fuliginea was at least 70% throughout. The compound also registered a chromatographic logP in data set [1] (setting [2]) of 1.6.

`CCN(C)C=Nc1cc(C)c(Oc2ccnc(SC3CCCCC3)n2)cc1C` [I.011, N'-[4-(2-cyclohexylsulfanylpyrimidin-4-yl)oxy-2,5-dimethylphenyl]-N-ethyl-N-methylmethan-imidamide]: the pest or weed control at 500 ppm in the data set on Phakospora pachyrhizi, in the data set with Puccinia recondita and with Sphaerotheca fuliginea was at least 70% each time. The same compound had a chromatographic logP in data set [1] (setting [2]) of 1.86.

On to `CCN(C)C=Nc1cc(C)c(Oc2ccnc(SC3CCCC3)n2)cc1C` [I.012, N'-[4-(2-cyclopentylsulfanylpyrimidin-4-yl)oxy-2,5-dimethylphenyl]-N-ethyl-N-methylmethan-imidamide], for which the pest or weed control at 500 ppm in the data set with Phakospora pachyrhizi, in the data set with Puccinia recondita and in the data set on Sphaerotheca fuliginea was at least 70% throughout. Moreover, the chromatographic logP in data set [1] (setting [2]) turned out to be 1.75.

For `CCN(C)C=Nc1cc(C)c(Oc2ccnc(SCCC(F)(F)F)n2)cc1C` [I.013, N'-[2,5-dimethyl-4-[2-(3,3,3-trifluoropropylsulfanyl)pyrimidin-4-yl]oxyphenyl]-N-ethyl-N-methylmethanimidamide], the pest or weed control at 500 ppm in the data set with Phakospora pachyrhizi, in the data set with Puccinia recondita and in the data set with Sphaerotheca fuliginea was at least 70% each time. For the same compound, the chromatographic logP in data set [1] (setting [2]) was found to be 1.58.

Regarding `CCN(C)C=Nc1cc(Br)c(Oc2ccnc(SC(C)C)n2)cc1C` [I.014, N'-[5-bromo-2-methyl-4-(2-propan-2-ylsulfanylpyrimidin-4-yl)oxyphenyl]-N-ethyl-N-methyl-methanimidamide], the pest or weed control at 500 ppm in the data set with Phakospora pachyrhizi, in the data set with Puccinia recondita and in the data set on Sphaerotheca fuliginea was at least 70% each time. Besides, the chromatographic logP in data set [1] (setting [2]) was 1.6; in data set [1] (setting [3]) it was 4.78.

Turning to `CCCSc1nccc(Oc2cc(C)c(N=CN(C)CC)cc2Br)n1` [I.015, N'-[5-bromo-2-methyl-4-(2-propylsulfanylpyrimidin-4-yl)oxyphenyl]-N-ethyl-N-methylmethan-imidamide], the pest or weed control at 500 ppm in the data set on Phakospora pachyrhizi, with Puccinia recondita and with Sphaerotheca fuliginea was at least 70% in each case. Also, the results for the chromatographic logP in data set [1] (setting [2]) and in data set [1] (setting [3]) were 1.66 and 4.86, respectively.

For `CCSc1nccc(Oc2cc(C)c(N=CN(C)CC)cc2Br)n1` [I.016, N'-[5-bromo-4-(2-ethylsulfanylpyrimidin-4-yl)oxy-2-methylphenyl]-N-ethyl-N-methylmethan-imidamide], the pest or weed control at 500 ppm in the data set with Phakospora pachyrhizi, in the data set on Puccinia recondita and with Sphaerotheca fuliginea was at least 70% throughout. The chromatographic logP was determined as 1.46 in data set [1] (setting [2]) and 4.44 in data set [1] (setting [3]).

Take `CCN(C)C=Nc1cc(Br)c(Oc2ccnc(C(F)(F)F)n2)cc1C` [I.017, N'-[5-bromo-2-methyl-4-[2-(trifluoromethyl)pyrimidin-4-yl]oxyphenyl]-N-ethyl-N-methyl-methanimidamide]: the pest or weed control at 500 ppm in the data set on Phakospora pachyrhizi, with Puccinia recondita and with Sphaerotheca fuliginea was at least 70% throughout. Besides, the chromatographic logP is 1.32 in data set [1] (setting [2]) and 4.08 in data set [1] (setting [3]).

With `CCN(C)C=Nc1cc(Br)c(Oc2cc(SC(C)(C)C)nc(C)n2)cc1C` [I.018, N'-[5-bromo-4-(6-tert-butylsulfanyl-2-methylpyrimidin-4-yl)oxy-2-methylphenyl]-N-ethyl-N-methylmethanimidamide], the pest or weed control at 500 ppm in the data set with Phakospora pachyrhizi, in the data set with Puccinia recondita and in the data set on Sphaerotheca fuliginea was at least 70% in each case. The chromatographic logP in data set [1] (setting [2]) was 2.11; in data set [1] (setting [3]), 5.99.

`CCSc1nc(C)cc(Oc2cc(C)c(N=CN(C)CC)cc2C)n1` [I.019, N-ethyl-N'-[4-(2-ethylsulfanyl-6-methylpyrimidin-4-yl)oxy-2,5-dimethylphenyl]-N-methyl-methanimidamide]: the pest or weed control at 500 ppm in the data set with Phakospora pachyrhizi, with Puccinia recondita and in the data set on Sphaerotheca fuliginea was at least 70% throughout. For the same compound, the chromatographic logP in data set [1] (setting [2]) is 1.52.

As for `CCCSc1nc(C)cc(Oc2cc(C)c(N=CN(C)CC)cc2C)n1` [I.020, N'-[2,5-dimethyl-4-(6-methyl-2-propylsulfanylpyrimidin-4-yl)oxyphenyl]-N-ethyl-N-methyl-methanimidamide], the pest or weed control at 500 ppm in the data set with Phakospora pachyrhizi, in the data set with Puccinia recondita and in the data set on Sphaerotheca fuliginea was at least 70% in each case. For the same compound, the chromatographic logP in data set [1] (setting [2]) was 1.69.

Turning to `CCN(C)C=Nc1cc(C)c(Oc2cc(C)nc(SCC(C)C)n2)cc1C` [I.021, N'-[2,5-dimethyl-4-[6-methyl-2-(2-methylpropylsulfanyl)pyrimidin-4-yl]oxyphenyl]-N-ethyl-N-methylmethanimidamide], the pest or weed control at 500 ppm in the data set with Phakospora pachyrhizi, in the data set on Puccinia recondita and with Sphaerotheca fuliginea was at least 70% in each case. The chromatographic logP in data set [1] (setting [2]) came out at 1.84.

For `CCN(C)C=Nc1cc(C)c(Oc2cc(C)nc(SC(C)C)n2)cc1C` [I.022, N'-[2,5-dimethyl-4-(6-methyl-2-propan-2-ylsulfanylpyrimidin-4-yl)oxyphenyl]-N-ethyl-N-methylmethanimidamide], the pest or weed control at 500 ppm in the data set on Phakospora pachyrhizi, with Puccinia recondita and with Sphaerotheca fuliginea was at least 70% in each case. This compound displayed a chromatographic logP in data set [1] (setting [2]) of 1.69.

With `CCN(C)C=Nc1cc(C)c(Oc2cc(SC(C)(C)C)nc(C)n2)cc1C` [I.023, N'-[4-(6-tert-butylsulfanyl-2-methylpyrimidin-4-yl)oxy-2,5-dimethylphenyl]-N-ethyl-N-methyl-methanimidamide], the pest or weed control at 500 ppm in the data set with Phakospora pachyrhizi, with Puccinia recondita and in the data set with Sphaerotheca fuliginea was at least 70% throughout. The same compound returned a chromatographic logP in data set [1] (setting [2]) of 1.99.

Consider `CCC(C)Sc1cc(Oc2cc(C)c(N=CN(C)CC)cc2C)nc(C)n1` (stereo not drawn) [I.024, N'-[4-(6-butan-2-ylsulfanyl-2-methylpyrimidin-4-yl)oxy-2,5-dimethylphenyl]-N-ethyl-N-methyl-methanimidamide], for which the pest or weed control at 500 ppm in the data set on Phakospora pachyrhizi, in the data set with Puccinia recondita and in the data set with Sphaerotheca fuliginea was at least 70% in each case. For the same compound, the chromatographic logP in data set [1] (setting [2]) was determined as 2.02; in data set [1] (setting [3]), 5.98.

Turning to `CCN(C)C=Nc1cc(C(F)F)c(Oc2ccnc(SCC(C)C)n2)cc1C` [I.025, N'-[5-(difluoromethyl)-2-methyl-4-[2-(2-methylpropylsulfanyl)pyrimidin-4-yl]oxyphenyl]-N-ethyl-N-methylmethanimidamide], the pest or weed control at 500 ppm in the data set on Phakospora pachyrhizi, in the data set on Puccinia recondita and in the data set on Sphaerotheca fuliginea was at least 70% in each case. Moreover, the chromatographic logP in data set [1] (setting [2]) stood at 1.69.

As a reminder, the chromatographic logP is lipophilicity estimated from chromatographic retention.
